The record followed here is ChEMBL document CHEMBL3882725, “Indazole derivatives as JNK inhibitors and compositions and methods related thereto” (2002).

Bounds are passed on as bounds.

This assay addresses Mitogen-activated protein kinase 9 (Homo sapiens, UniProt P45984). In words: Inhibition of His6-tagged JNK2 (unknown origin) assessed as reduction in c-Jun phosphorylation using GST-c-Jun (1 to 79 residues) and [gamma32P]ATP incubated for 1 hr by scintillation counting assay.

Mitogen-activated protein kinase 9, sequence (P45984 whole entry, the tested form may be a part): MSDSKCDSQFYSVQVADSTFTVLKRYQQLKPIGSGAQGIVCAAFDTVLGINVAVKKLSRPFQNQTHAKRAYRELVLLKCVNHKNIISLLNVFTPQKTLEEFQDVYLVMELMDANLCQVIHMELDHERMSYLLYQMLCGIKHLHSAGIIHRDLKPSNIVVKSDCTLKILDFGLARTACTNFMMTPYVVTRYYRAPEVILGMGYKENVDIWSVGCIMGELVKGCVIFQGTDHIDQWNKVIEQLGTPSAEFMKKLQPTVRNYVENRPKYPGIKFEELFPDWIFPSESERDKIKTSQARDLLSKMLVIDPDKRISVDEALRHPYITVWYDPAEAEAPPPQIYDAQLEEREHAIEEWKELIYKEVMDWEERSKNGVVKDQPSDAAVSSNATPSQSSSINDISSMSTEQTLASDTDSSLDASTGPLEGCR

As for `Fc1ccc(-c2n[nH]c3ccc(/C=C/c4ccncc4)cc23)cc1`, the IC50 is at most 10 µM.

On to `O=C(c1ccc2[nH]nc(-c3ccc(F)cc3)c2c1)N1CCCC1`, for which the IC50 was at most 10 µM. As for `CC(O)CNC(=O)c1ccc2[nH]nc(-c3ccc(F)cc3)c2c1` (stereo not drawn), the concentration for half-maximal inhibition (IC50) lay in the range of 1 to 10 µM. As for `CN(C)Cc1nc(-c2ccc3[nH]nc(-c4cccc(C(=O)NC(C)(C)C)c4)c3c2)n[nH]1`, the IC50 was 0.5 to 10 µM. Regarding `O=C(NC1CCCC1)c1cccc(-c2n[nH]c3ccc(-c4nc[nH]n4)cc23)c1`, the IC50 lay within 0.5 to 10 µM. `COCC(=O)Nc1ccc(-c2n[nH]c3ccc(-c4nc[nH]n4)cc23)cc1`: the IC50 was 1 to 10 µM. For `O=C(Nc1cccc(-c2n[nH]c3ccc(-c4nc[nH]n4)cc23)c1)C1CCCC1`, the IC50 lay in the range of 1 to 10 µM. `O=C1CCCN1CCOc1cccc(-c2n[nH]c3ccc(-c4ncn[nH]4)cc23)c1`: the IC50 lay within 1 to 10 µM. As to `O=C(Nc1ccccc1)c1ccc2[nH]nc(-c3ccc(F)cc3)c2c1`, the IC50 was at most 10 µM. In the case of `COc1ccc(-c2n[nH]c3ccc(NC(=O)c4ccc(C(=O)O)cc4)cc23)cc1`, the 50% inhibitory concentration (IC50) lay within 1 to 10 µM. With `NC(=O)c1ccc2[nH]nc(-c3cc4ccccc4o3)c2c1` the figure was 1 to 10 µM; with `NC(=O)c1ccc2[nH]nc(-c3cccc(NC(=O)C4CCNCC4)c3)c2c1`, 1 to 10 µM; with `CCOC(=O)c1ccc2[nH]nc(-c3ccc(F)cc3)c2c1`, 1 to 10 µM. As for `c1cc(OCCN2CCNCC2)cc(-c2n[nH]c3ccc(-c4ncn[nH]4)cc23)c1`, the figure is 1 to 10 µM; as for `O=C(Nc1ccc(-c2n[nH]c3ccc(-c4nn[nH]n4)cc23)cc1)c1cccnc1`, 0.5 to 10 µM; as for `CS(=O)(=O)Nc1cccc(-c2n[nH]c3ccc(-c4nnc[nH]4)cc23)c1`, 1 to 10 µM. With `Fc1ccc(-c2n[nH]c3ccc(-c4nc(-c5ccccc5)n[nH]4)cc23)cc1`, the IC50 fell in the range of 1 to 10 µM. For `O=C(Nc1ccccc1)c1cccc(-c2n[nH]c3ccc(-c4n[nH]c(CN5CCCC5)n4)cc23)c1`, the IC50 lay in the range of 0.5 to 10 µM.

As for `O=C(O)c1cccc(C(=O)Nc2ccc3[nH]nc(-c4ccc(F)cc4)c3c2)c1`, the IC50 is 1 to 10 µM. Consider `CN(C)CCNC(=O)c1ccc2[nH]nc(-c3ccc(F)cc3)c2c1`, for which the IC50 is at most 10 µM. As for `Nc1cccc(NC(=O)c2ccc3[nH]nc(-c4ccc(F)cc4)c3c2)c1`, the figure is 1 to 10 µM.

Regarding `NC(=O)c1ccc2[nH]nc(C#Cc3ccccc3)c2c1`, the IC50 was in the range of 1 to 10 µM.

For the compound `NC(=O)c1ccc(NC(=O)c2ccc3[nH]nc(-c4ccc(F)cc4)c3c2)cc1`, the IC50 was in the range of 1 to 10 µM.

For the compound `CCCc1n[nH]c(-c2ccc3[nH]nc(-c4ccc(F)cc4)c3c2)n1`, the IC50 was 1 to 10 µM. Regarding `O=C(Nc1ccc2[nH]nc(-c3ccccc3)c2c1)c1ccccn1`, the IC50 was in the range of 1 to 10 µM. For `O=C(Nc1ccc2[nH]nc(-c3ccc(F)cc3)c2c1)c1cccs1`, the IC50 lay in the range of 1 to 10 µM. For the compound `Oc1ccc(-c2n[nH]c3ccc(-c4ncn[nH]4)cc23)cc1`, the IC50 lay in the range of 1 to 10 µM. As to `O=C(NCC1CCCC[C@H]1O)c1ccc2[nH]nc(-c3ccc(F)cc3)c2c1` (stereo partly drawn), the IC50 was in the range of 1 to 10 µM. As for `CC(C)(C)OC(=O)CNC(=O)c1ccc2[nH]nc(-c3ccc(F)cc3)c2c1`, the IC50 was in the range of 1 to 10 µM.

Consider `O=C(NCc1ccccc1)c1cccc(-c2n[nH]c3ccc(-c4ncn[nH]4)cc23)c1`, for which the IC50 lay in the range of 0.5 to 10 µM. `O=C(NC1CCCCC1)c1cccc(-c2n[nH]c3ccc(-c4nc[nH]n4)cc23)c1`: the IC50 was 0.5 to 10 µM. For the compound `NC(=O)c1ccc2[nH]nc(-c3cccc(NC(=O)C4CC4)c3)c2c1`, the IC50 is 1 to 10 µM. With `CN(C)c1ccc(-c2n[nH]c3ccc(C(N)=O)cc23)cc1`, the IC50 lay in the range of 1 to 10 µM.

Consider `O=C(Nc1ccc(F)cc1)c1cccc(-c2n[nH]c3ccc(-c4nc[nH]n4)cc23)c1`, for which the IC50 was in the range of 0.5 to 10 µM. Consider `OC1CCN(Cc2nnc(-c3ccc4[nH]nc(-c5ccc(F)cc5)c4c3)[nH]2)CC1`, for which the IC50 fell in the range of 1 to 10 µM. Take `O=C(O)C(=O)Nc1cccc(-c2n[nH]c3ccc(-c4nc[nH]n4)cc23)c1`: the IC50 lay in the range of 0.5 to 10 µM.

For the compound `O=C(Nc1cccnc1)c1ccc2[nH]nc(-c3ccc(F)cc3)c2c1`, the IC50 lay in the range of 1 to 10 µM.

`CC(C)NC(=O)c1cccc(-c2n[nH]c3ccc(-c4nc[nH]n4)cc23)c1`: the IC50 lay in the range of 0.5 to 10 µM.

Consider `O=C(Nc1cccc(-c2n[nH]c3ccc(-c4nc[nH]n4)cc23)c1)c1ccc(Cl)cc1`, for which the IC50 was 1 to 10 µM. In the case of `COCCOc1cccc(-c2n[nH]c3ccc(-c4nc[nH]n4)cc23)c1`, the IC50 lay within 1 to 10 µM. For `c1cc(OCCN2CCCCC2)cc(-c2n[nH]c3ccc(-c4nc[nH]n4)cc23)c1` [CC-401], the IC50 fell in the range of 1 to 10 µM. As for `NC(=O)c1ccc2[nH]nc(-c3ccoc3)c2c1`, the figure is 1 to 10 µM.

For the compound `CCOC(=O)CCCc1nnc(-c2ccc3[nH]nc(-c4ccc(F)cc4)c3c2)[nH]1`, the IC50 lay in the range of 1 to 10 µM. With `Cn1cncc1CCNC(=O)c1ccc2[nH]nc(-c3ccc(F)cc3)c2c1` the figure was 1 to 10 µM. For the compound `O=C(CN1CCOCC1)Nc1cccc(-c2n[nH]c3ccc(-c4nc[nH]n4)cc23)c1`, the IC50 was 0.5 to 10 µM. Regarding `c1nc(-c2ccc3[nH]nc(-c4ccc5c(c4)OCO5)c3c2)n[nH]1`, the IC50 was 1 to 10 µM. On to `C(#Cc1n[nH]c2ccc(-c3nnc[nH]3)cc12)c1ccccc1`, for which the IC50 lay in the range of 1 to 10 µM.

As for `CCNc1ccc2[nH]nc(-c3ccc(F)cc3)c2c1`, the IC50 was at most 10 µM.

Turning to `CS(=O)(=O)Nc1ccc(-c2n[nH]c3ccc(-c4nc[nH]n4)cc23)cc1`, the half-inhibitory concentration (IC50) lay within 1 to 10 µM. As for `O=C(NCc1ccc(F)cc1)c1cccc(-c2n[nH]c3ccc(-c4ncn[nH]4)cc23)c1`, the figure is 0.5 to 10 µM; as for `CN(C)c1ccc(CC(=O)Nc2cccc(-c3n[nH]c4ccc(C(N)=O)cc34)c2)cc1`, 1 to 10 µM; as for `COCCNC(=O)c1ccc2[nH]nc(-c3cc4ccccc4o3)c2c1`, 1 to 10 µM. As for `COc1ccc(-c2n[nH]c3ccc(-c4nnn[nH]4)cc23)cc1`, the figure is 0.5 to 10 µM; as for `O=C(NCC1CC1)c1cccc(-c2n[nH]c3ccc(-c4ncn[nH]4)cc23)c1`, 0.5 to 10 µM. As for `Clc1ccc(/C=C/c2n[nH]c3ccc(-c4nc[nH]n4)cc23)cc1`, the IC50 is 1 to 10 µM. As for `Cc1nnc(-c2ccc3[nH]nc(-c4ccc(F)cc4)c3c2)o1`, the figure is 1 to 10 µM; as for `COCCNc1cccc(-c2n[nH]c3ccc(C(N)=O)cc23)c1`, 1 to 10 µM; as for `CNC(=O)c1ccc2[nH]nc(-c3ccc(F)cc3)c2c1`, 1 to 10 µM. As to `NC(=O)CCNC(=O)c1ccc2[nH]nc(-c3ccc(F)cc3)c2c1`, the IC50 is 1 to 10 µM. Turning to `Nc1ccc2[nH]nc(-c3cccc(C(F)(F)F)c3)c2c1`, the IC50 was at most 10 µM. `O=C(Nc1cccc(-c2n[nH]c3ccc(-c4nc[nH]n4)cc23)c1)C1CC1`: the IC50 is 1 to 10 µM. As to `CC(C(=O)Nc1cccc(-c2n[nH]c3ccc(C(N)=O)cc23)c1)c1ccccc1` (stereo not drawn), the IC50 lay within 1 to 10 µM. Turning to `Nc1nnc(-c2ccc3[nH]nc(-c4ccc(F)cc4)c3c2)[nH]1`, the IC50 was in the range of 1 to 10 µM. As for `O=C(NCc1cccnc1)c1cccc(-c2n[nH]c3ccc(-c4ncn[nH]4)cc23)c1`, the IC50 is 0.5 to 10 µM. As for `NC(=O)c1ccc2[nH]nc(-c3ccc(F)cc3)c2c1`, the IC50 fell in the range of 1 to 10 µM. `Fc1ccc(-c2n[nH]c3ccc(-c4nnc(CN5CCOCC5)o4)cc23)cc1`: the IC50 fell in the range of 1 to 10 µM. Regarding `CCN(CC)Cc1nc(-c2ccc3[nH]nc(-c4ccc(F)cc4)c3c2)n[nH]1`, the IC50 lay in the range of 1 to 10 µM. For the compound `O=C(O)/C=C/c1ccc2[nH]nc(-c3ccc(F)cc3)c2c1`, the IC50 lay in the range of 1 to 10 µM. For the compound `NC(=O)c1ccc2[nH]nc(-c3cccc(NC(=O)Cc4ccc(Cl)cc4Cl)c3)c2c1`, the IC50 was 1 to 10 µM.

For the compound `O=C(Nc1nnn[nH]1)c1ccc2[nH]nc(-c3ccc(F)cc3)c2c1`, the IC50 was 1 to 10 µM. For `NC(=O)c1ccc2[nH]nc(-c3cccc(NC(=O)CCc4ccc(F)cc4)c3)c2c1`, the IC50 was 1 to 10 µM.

As to `NC(=O)c1ccc2[nH]nc(-c3ccc4ccccc4c3)c2c1`, the IC50 lay in the range of 1 to 10 µM.

Take `O=C(Cc1ccccc1)Nc1cccc(-c2n[nH]c3ccc(-c4nnc[nH]4)cc23)c1`: the IC50 fell in the range of 0.5 to 10 µM. As for `c1ccc2sc(-c3n[nH]c4ccc(-c5nn[nH]n5)cc34)cc2c1`, the IC50 fell in the range of 0.5 to 10 µM.

For the compound `Nc1ccc(-c2n[nH]c3ccc(-c4nc[nH]n4)cc23)cc1`, the IC50 fell in the range of 1 to 10 µM. With `O=C(NCCN1CCOCC1)c1cccc(-c2n[nH]c3ccc(-c4nc[nH]n4)cc23)c1` the figure was 0.5 to 10 µM. With `c1nc(-c2ccc3[nH]nc(-c4ccc5c(c4)OCCO5)c3c2)n[nH]1` the figure was 1 to 10 µM; with `NC(=O)c1ccc2[nH]nc(-c3cccc(NC(=O)C4CCOC4)c3)c2c1` (stereo not drawn), 0.5 to 10 µM; with `NC(=O)c1ccc2[nH]nc(-c3cccc(NC(=O)Cc4ccc(F)c(F)c4)c3)c2c1`, 1 to 10 µM.

Take `CN(C)CCNC(=O)c1ccc2[nH]nc(-c3cc4ccccc4o3)c2c1`: the IC50 was in the range of 1 to 10 µM. For the compound `Nc1ccc2[nH]nc(-c3ccccc3)c2c1`, the IC50 was at most 10 µM. Turning to `O=C(Nc1cccc(-c2n[nH]c3ccc(-c4nc[nH]n4)cc23)c1)c1ccno1`, the IC50 was in the range of 0.5 to 10 µM. Turning to `Fc1ccc(-c2n[nH]c3ccc(-c4nc(-c5ccncc5)n[nH]4)cc23)cc1`, the IC50 lay within 1 to 10 µM. `CC(C)(C)OC(=O)NNC(=O)c1ccc2[nH]nc(-c3ccc(F)cc3)c2c1`: the IC50 was in the range of 1 to 10 µM. Turning to `COc1ccc(CC(=O)Nc2cccc(-c3n[nH]c4ccc(C(N)=O)cc34)c2)cc1`, the IC50 lay in the range of 0.5 to 10 µM.

For `c1cc(OCCN2CCCCCC2)cc(-c2n[nH]c3ccc(-c4ncn[nH]4)cc23)c1`, the IC50 is 1 to 10 µM. With `COCC(=O)Nc1cccc(-c2n[nH]c3ccc(-c4nnc[nH]4)cc23)c1` the figure was 0.5 to 10 µM; with `Oc1ccccc1-c1n[nH]c2ccc(-c3nnn[nH]3)cc12`, 1 to 10 µM.

For `O=C(Nc1cccc(-c2n[nH]c3ccc(-c4nn[nH]n4)cc23)c1)c1cccnc1`, the IC50 was 0.5 to 10 µM.

Turning to `O=[N+]([O-])c1ccc2[nH]nc(-c3ccccc3)c2c1`, the IC50 was at most 10 µM. As for `NCCCNC(=O)c1ccc2[nH]nc(-c3ccc(F)cc3)c2c1`, the IC50 lay within 1 to 10 µM. Consider `COc1ccc2cc(-c3n[nH]c4ccc(C(N)=O)cc34)ccc2c1`, for which the IC50 fell in the range of 1 to 10 µM. Regarding `c1cc(OCCCN2CCCCC2)cc(-c2n[nH]c3ccc(-c4ncn[nH]4)cc23)c1`, the half-maximal inhibitory concentration (IC50) is 0.5 to 10 µM.
